Data published in patent publication US8937086B2, “Compounds for the treatment of pathologies associated with aging and degenerative disorders” (University of Pittsburgh—Of the Commonwealth System of …, priority 2008, dated 2015).
Entries after “also recorded” stand apart in the source; their conditions may differ.

Tests used:
[1] = Body weight / tolerability in treated Ercc1-/Δ mice; format: in vivo, mouse; conditions: FIG. 11A-B; weight versus time
Method: FIG. 11A-B. Weights as a function of age of (A) male and (B) female Ercc1^−/Δ mice either treated with XJB-5-131 or vehicle (sunflower seed oil) according to the protocol shown in FIG. 7.
(§1) To assess the effectiveness of XJB-5-131 in inhibiting degeneration and/or signs of aging and age-related degenerative diseases, the compound was administered, over a 18-21 week period, to progeroid Ercc1^−/Δ mice, at a dose of 2 mg/kg in sunflower seed oil carrier (to promote solubility) administered intraperitoneally three times per week (FIG. 7). Sunflower seed oil was administered to twin Ercc1^−/Δ mice according to the same schedule as a control. The treated and control mice were monitored twice a week for weight and symptom/sign development.
(§2) To assess the impact of XJB-5-131 at a cellular level, a number of experiments were carried out using mouse embryonic fibroblasts (“MEF”) cells harvested from Ercc1^−/− mouse embryos.

[2] = Solubility (statement); format: physicochemical
Excerpt: Compounds as set forth herein may be administered in a suitable pharmaceutical carrier (e.g. sterile water, normal saline, phosphate buffered saline, etc.). Not by way of limitation, inhibitors may be administered as a solution, as a suspension, in solid form, in a sustained release formulation, in a topical cream formulation, etc. In particular non-limiting examples, an inhibitor may be incorporated into a microcapsule, nanoparticle or liposome.

[3] = tested on: R6/2 mice; experiment: Rotarod motor co-ordination in Huntington's disease model; format: in vivo, mouse; conditions: 2 mg/kg i.p. three times per week from 5 weeks of age; at 6 and 7 weeks of age; vs untreated mutant animals
Method: FIG. 19. XJB-5-131 preserved motor function in a mouse model of Huntington's disease. Five R6/2 mice, which model Huntington's disease, were treated three times per week with 2 mg/kg XJB-5-131 beginning at 5 weeks of life according to the scheme in FIG. 7. Motor function was assessed weekly by measuring the time animals were able to remain balanced on a rotarod, according to standard methods.
Huntington's disease is a fatal autosomal dominant neurodegenerative disease. The prevalence of Huntington's disease is four to seven in 100 000 and it typically develops in mid-life. The symptoms involve psychiatric, motor and cognitive disturbances, and weight loss. […] Mutant huntingtin forms insoluble aggregates that accumulate in the cytoplasm and nucleus of cells, disrupting neuron function. R6/2 mice express exon 1 of the human huntingtin gene, containing 150 CAG repeats. Consequently, the mice develop neurological symptoms that resemble many of those seen in Huntington's disease, including deficits of motor co-ordination, altered locomotor activity, impaired cognitive performance and seizures. Symptoms begin by week 3-4 and are progressive. […] Motor co-ordination was measured using a rotarod, after the mice were conditioned to the apparatus.

[4] = tested on: primary MEF from Ercc1^−/− mouse embryos; experiment: p16 immunofluorescence (irreversible cellular senescence) in MEF; format: cell-based; conditions: 1 μM, 48 hours, 20% oxygen; vs untreated cells
Method: FIG. 17. Levels of p16, a marker of irreversible cellular senescence, in MEF cells prepared from Ercc1^−/− mice, where the MEF cells were either treated with JP4-039 (10 μM dissolved in media) or media alone for 48 hours prior to fixing and immunostaining of cells.
To test the protective activity of JP4-039, cultures of primary MEF were prepared from Ercc1^−/− mouse embryos and grown under 20% oxygen (ambient air), which creates oxidative stress in these cells that are hypersensitive to the reactive oxygen species. The cells were then either treated with a concentration of 1 μM of XJB-5-131, JP4-039, JED-E71-37 or JED-E71-58, or left untreated, and then after 48 hours the level of p16, a marker of irreversible cellular senescence, was measured by immunofluorescence staining. […] Furthermore, in vivo, JP4-039 reversed epidermal atrophy, by increasing proliferation of keratinocytes (FIG. 10D). Thus JP4-039 was efficacious in vitro and in vivo for reducing/reversing age-related degenerative changes.

[5] = tested on: Ercc1^−/cond; K14-Cre mice; experiment: UV-induced photoaging / sunburn of skin, topical cream; format: in vivo, mouse
Method: FIG. 10A-D. (A) Effects of (photo)aging in Ercc1^−/Δ mice either treated with XJB-5-131 (80 μg emulsified in a topical cream) or cream only according to the protocol shown in FIG. 7. The duration of treatment of mice in this figure was daily for five days post-UV irradiation. (B) Compounds as disclosed herein protect skin from photoaging by improving keratin production. Skin of Ercc1^−/cond; K14-Cre mice (missing ERCC1-XPF expression only in the skin) were treated with 20 J/m2 (half of the minimal erythemal dose) five times per week for 10 weeks to induce photoaging of the skin. Immediately after UV exposure, XJB-5-131 was applied (80 μg in 50 μL of cream) using a cotton applicator. Twenty-four hours after the last treatment, mice were euthanized and skin harvested for histopathologic examination. Skin sections were immunostained for keratin (red), DNA to reveal nuclei (blue) and actin (green). (C) Compounds as disclosed herein protect skin from inflammation in response to ultraviolet radiation. Skin of Ercc 1^−/cond; K14-Cre mice (missing ERCC1-XPF expression only in the skin) were treated with 500 J/m2 (12.5× the minimal erythemal dose) to induce erythema. Immediately after UV exposure, XJB-5-131 was applied (80 μg in 50 μL of cream) using a cotton applicator. Twenty-four hours after treatment, mice were euthanized and skin harvested for histopathologic examination. Skin sections were immunostained for keratin (red), DNA to reveal nuclei (blue) and actin (green). The thickness of the epidermal layer (indicated by the white bracket) is less in mice treated with XJB-5-131 than in mice treated with cream alone. (D) Compounds as disclosed herein reduce epidermal atrophy. Old (>24 months) normal mice were shaved and their skin treated with JP4-039 (450 μg in 50 μL of cream) or vehicle (cream) only five times per week for 10 weeks. Twenty-four hours after the last treatment, mice were euthanized and skin harvested for histopathologic examination. Skin sections were stained for DNA to reveal nuclei (blue) and actin (green).
As a measure of the effect of XJB-5-131 on photoaging or sun-induced skin changes, treated and control Ercc1^−/cond. K 14-Cre mice, which are missing ERCC1 only in the skin, were shaved, treated with a depilatory, then irradiated with UV-B light to induce sunburn (500 J/m2, the […] erythemal dose). Subsequently, the mice were treated with XJB-5-131 (80 μg) emulsified in a cream daily for five days.

[6] = tested on: Ercc1^−/− primary MEF; experiment: γH2AX immunostaining of oxidatively stressed primary MEF; format: cell-based, mouse; conditions: 20% oxygen
Method: FIG. 13A-B. γH2AX immunostaining of Ercc1^−/− primary MEF grown at 20% oxygen to induce oxidative stress. Phosphorylated H2AX (γH2AX is a marker of cellular senescence and DNA damage. The MEF cells were either treated with XJB-5-131 (A) or E71-58 (B), fewer cells stained positively for γH2AX.
as §2
Next, the abilities of these two compounds, as well as XJB-5-131 and JP4-039, each at a concentration of 1 μM, were tested for their ability to prevent cellular senescence in cell cultures prepared, and oxidatively stressed, as in the preceding paragraph. Treated as well as untreated cells were, after 48 hours, immunostained for γ-H2AX, a marker of DNA double-strand breaks as well as cellular senescence.

[7] = tested on: MEF cells prepared from Ercc1^−/− mice; experiment: Apoptosis in MEF cells; format: cell-based, mouse; conditions: 500 nM in media, 48 hours; vs media alone
Method: FIG. 14. Apoptosis in MEF cells prepared from Ercc1^−/− mice, where the MEF cells were either treated with XJB-5-131 (500 nM dissolved in media) or media alone continuously for 48 hours prior to fixing and staining the cells.
as §2

[8] = tested on: Ercc1^−/Δ mice; experiment: Healthspan of progeroid Ercc1-/Δ mice treated with compound vs sibling given vehicle; format: in vivo, mouse
Excerpt: FIG. 7. Experimental system for determining the impact of a therapeutic compound on the healthspan of Ercc1^−/Δ mice with accelerated aging. Transgenic mice or mutant animals were born from heterozygous crossings. Only litters with two Ercc1^−/Δ mice were enrolled in the study so that siblings could be used to assess the effect of a therapeutic compound, XJB-5-131 vs. vehicle in a pair-wise comparison. Treatments were initiated before the mice became symptomatic. The age at onset of progeroid symptoms were measured biweekly by an investigator blinded to the treatment of the mice.
as §1

[9] = tested on: MEF cells harvested from Ercc1^−/− mouse embryos; experiment: SA-β galactosidase staining (cellular senescence) in MEF; format: cell-based; conditions: 500 nM in media, ambient oxygen, 48 hours; vs media only
Method: FIG. 12. SA-β galactosidase (a marker of cellular senescence) staining in mouse embryonic fibroblast (“MEF”) cells prepared from Ercc1^−/− mice, where the MEF cells were either treated with XJB-5-131 ([…]) or media alone continuously for 48 hours prior to fixing and staining the cells.
as §2

[10] = acute or chronic photoaging, 80 μg in 50 μL of cream

Structure (SMILES) | weight loss as a result of treatment [1] | solubility [2] | motor co-ordination (time on rotarod) [3] | level of p16 [4] | thickness of the epidermal layer after UV ([5]; 500 J/m2, 80 μg in 50 μL of cream, 24 h, vs cream alone) | skin appearance after UV-B sunburn ([5]; 500 J/m2 UV-B, 80 μg in cream daily for five days, vs cream only) | inflammation of skin after UV [5, 10] | keratin in skin sections (immunofluorescence) [5, 10] | γ-H2AX immunostaining (prevention of cellular senescence) ([6]; 1 μM, 48 hours, vs untreated) | γH2AX foci / cells staining positively for γH2AX ([6]; FIG. 13, concentration not stated) | amount of apoptosis [7] | overall aging score (relative age at onset of progeroid symptoms vs sibling on oil) ([8]; 2 mg/kg i.p. in sunflower seed oil, three times per week, 18-21 weeks) | onset of progeroid symptoms and aging pathologies ([8]; 2 mg/kg i.p. three times per week) | symptoms of accelerated aging marked with asterisk (dystonia, ataxia, muscle wasting, decreased spontaneous activity or lethargy), age at onset ([8]; FIG. 8, vs vehicle only) | neurodegeneration and muscle wasting in twin mice ([8]; FIG. 9A, three times per week from 5 weeks of age, vs sibling on vehicle) | general appearance of twin mice ([8]; FIG. 9A, vs sibling on vehicle) | glycosaminoglycan in intervertebral discs, more relative to control mice ([8]; FIG. 9B, vs sunflower seed oil) | neurodegeneration in brain/cerebellum (GFAP immunostaining) ([8]; FIG. 9C, vs siblings on vehicle only) | insulin-producing β-islet cells in pancreas ([8]; FIG. 9D, H&E sections) | amount of SA-β galactosidase staining [9]
CC1(C)CCCC(C)(C)N1[O] [TEMPO, 2,2,6,6-tetramethylpiperidine-N-oxyl, reference compound] | cause weight loss | – | – | – | – | – | – | – | – | – | – | – | – | – | – | – | – | – | – | –
CC(C)C[C@@H](/C=C/[C@H](Cc1ccccc1)C(=O)N1CCC[C@H]1C(=O)N[C@H](C(=O)N[C@@H](CCCNC(=O)OCc1ccccc1)C(=O)NC1CC(C)(C)N([O])C(C)(C)C1)C(C)C)NC(=O)OC(C)(C)C [XJB-5-131] | did not cause weight loss | sparingly soluble | significantly better | less effective | less | much more smooth and healthy | reduced | improved | less effective | reduce; also recorded: fewer | did not reduce | significantly improved | delayed the onset | significantly delayed | reduced and less | improved | approximately 30% | significantly reduced; also recorded: Decreased | preserved; also recorded: Preservation | notably less
